According to patent publication US11440903B2, “Salt form and crystal form of compound as FGFR4 inhibitor and preparation method thereof” (GUANGDONG ZHONGSHENG PHARMACEUTICAL CO., LTD, priority 2017, dated 2022):

Experiments:
Type in all cases: physicochemical
[1] = Solid stability test of the crystal forms (influence factors and acceleration tests; appearance, XRPD, HPLC content and impurities)
Description: A sample of the crystal form A was placed on the bottom of a glass sample bottle, and spread to a thin layer. The sample stored under high temperature, high humidity, and acceleration conditions was placed in a bottle of which the mouth was packed with a pierced aluminum foil to ensure the sample to be sufficiently exposed to ambient air; the sample stored under light radiation conditions was placed at room temperature in a standing bottle of which the mouth was open, the sample was exposed to a light resource, and sampled for detection after being radiated by sufficient energy. Samples were taken and analyzed at various time points, and the test results were compared with the initial test results of 0 day, the inspection items included appearance, content and impurities, and the test results are shown in Table 9.
A sample of the crystal form B (10 mg) was placed on the bottom of a glass sample bottle, and spread to a thin layer. The sample stored under high temperature, high humidity, and acceleration conditions were placed in a bottle of which the mouth was packed with a pierced aluminum foil to ensure the sample to be sufficiently exposed to ambient air; the sample stored under light radiation conditions was placed at room temperature in a standing bottle of which the mouth was open, the sample was exposed to a light resource, and sampled for detection after being radiated by sufficient energy, the control sample stored in dark (open, the whole sample bottle was sealed with aluminum foil to keep the content in dark) and the sample stored under light radiation conditions were placed together to exclude environmental influence on the samples. Samples were taken and analyzed at various time points, and the test results were compared with the initial test results of 0 day, the inspection items included appearance, crystal form, content and impurities, the test results are shown in Table 10.
(§1) A sample of the crystal form C was taken and placed on the bottom of a glass sample bottle, and spread to a thin layer. The sample stored under high temperature, high humidity, and acceleration conditions was placed in a bottle of which the mouth was packed with a pierced aluminum foil to ensure the sample to be sufficiently exposed to ambient air; the sample stored under light radiation conditions was placed at room temperature in a standing bottle of which the mouth was open, the sample was exposed to a light resource, and sampled for detection after being radiated by sufficient energy. Samples were taken and analyzed at various time points, and the test results were compared with the initial test results of 0 day.
as §1, with “D” for “C”
A sample of the crystal form E (10 mg) was taken and placed on the bottom of a glass sample bottle, and spread to a thin layer. […]

[2] = Stability of the crystal form on stirring as suspension in solvent (40° C., 2 days)
Description: 30 mg of the compound represented by formula (I) was weighed and added into a glass flask, 400 μL acetonitrile-water (1:1) was added to form a suspension. A sample of the suspension was placed on a magnetic stirrer (40° C.) for a dark stirring experiment. The sample of the suspension was centrifuged after stirring at 40° C. for 2 days, and then the residual sample was dried in a vacuum drying oven (30° C.) overnight to give a crystal form A of the compound represented by formula (I). The XRPD pattern of the crystal form A of the compound represented by formula (I) is shown in FIG. 1, the DSC pattern is shown in FIG. 2, and the TGA pattern is shown in FIG. 3.
30 mg of the compound represented by formula (I) was weighed and added into a glass flask, and 400 μL ethyl acetate was added to form a suspension. A sample of the suspension was placed on a magnetic stirrer (40° C.) for dark stirring experiment. The sample of the suspension was centrifuged after stirring at 40° C. for 2 days, and then the residual sample was dried in a vacuum drying oven (30° C.) overnight. The crystal form was detected by XRPD to give a crystal form A of the compound represented by formula (I).
30 mg of the compound represented by formula (I) was weighed and added into a glass flask, and 400 μL methanol was added to form a suspension. A sample of the suspension was placed on a magnetic stirrer (40° C.) for dark stirring experiment. The sample of the suspension was centrifuged after stirring at 40° C. for 2 days, and then the residual sample was dried in a vacuum drying oven (30° C.) overnight to give a crystal form B of the compound represented by formula (I). The XRPD pattern of the crystal form B of the compound represented by formula (I) is shown in FIG. 4, the DSC pattern is shown in FIG. 5, and the TGA pattern is shown in FIG. 6.
50 mg of the compound represented by formula (I) was weighed and added into a 1.5 mL liquid vial, and 200 μL methanol was added thereto, the obtained mixture was homogeneously mixed under ultrasound. The dissolved sample was quickly centrifuged, and the supernatant was placed in a centrifuge tube, the mouth of the tube was packed with a pierced aluminum foil, and then the tube was placed in a fume cupboard for volatilization; the sample of the suspension was placed on a magnetic stirring heater (40° C.) for stirring (in dark), and quickly centrifuged after 2 days. The resultant solid was collected and dried at 30° C. in a vacuum drying oven overnight to give the crystal form C of the compound represented by formula (I). The XRPD pattern of the crystal form C of the compound represented by formula (I) is shown in FIG. 7, the DSC pattern is shown in FIG. 8, and the TGA pattern is shown in FIG. 9.
50 mg of the compound represented by formula (I) was weighed and added into a 1.5 mL liquid vial, and 200 μL ethanol was added thereto, and the obtained mixture was homogeneously mixed under ultrasound. The dissolved sample was quickly centrifuged, the supernatant was placed into a centrifuge tube, and the mouth of the tube was packed with a pierced aluminum foil, and placed in a fume cupboard for volatilization; the sample of the suspension was placed on a magnetic stirring heater (40° C.) for stirring (in dark), and quickly centrifuged after 2 days. The solid obtained as above was collected and dried at 30° C. in a vacuum drying oven overnight to give a crystal form D of the compound represented by formula (I). The XRPD pattern of the crystal form D of the compound represented by formula (I) is shown in FIG. 10, the DSC pattern is shown in FIG. 11, and the TGA pattern is shown in FIG. 12.
35 mg of the compound represented by formula (II) was weighed and added into a 1.5 mL liquid vial, and 400 μL methanol was added thereto, and the obtained mixture was homogeneously mixed under ultrasound. […]

[3] = Solubility test in biological media (FaSSIF, FeSSIF, SGF) and water, 37° C.; conditions: SGF and fasting or satiety state simulated intestinal fluid
Description: Step 1: Preparation of Control Solutions (0.2 mg/mL, calculated by free base)
2 mg the crystal form B of the compound represented by formula (I) (or 2.4 mg the crystal form E of the compound represented by formula (II)) as a control was precisely weighed and placed into a 40 mL glass vial, and a diluent (10 mL) was precisely added. The reaction solution was subjected to ultrasonic treatment for 20 min to sufficiently dissolve, then cooled to room temperature and shaked well. Two control solutions (STD #1, STD #2) were formulated in accordance with this method.
Step 2: Preparation of Linear Solutions
The control solution STD #1 of the crystal form B of the compound represented by formula (I) was 1×, 10×, 100×, 1000× and 2000× (free base LOQ) diluted, and designated as the linear solutions L1, L2, L3, L4 and L5; the control solution STD #1 of the crystal form E of the compound represented by formula (II) was 1×, 10×, 100× and 1000× (methanesulfonate LOQ) diluted, and designated as the linear solutions L1, L2, L3, L4.
Step 3: Solubility Test of the crystal form B of the compound represented by formula (I), the crystal form G of the compound represented by formula (III) and the crystal form E of the compound represented by formula (II) in biological media and water
4 samples (about 4 mg) of each of the crystal form B of the compound represented by formula (I), the crystal form E of the compound represented by formula (II), and the crystal form G of the compound represented by formula (III) were added into 12 glass vials (4 mL), respectively, and then 2 mL different biological media (FaSSIF, FeSSIF, SGF) and water were added into each compound respectively, then mixed homogeneously to form a suspension. The suspension was detected for its initial pH value. A magnet was added into the suspension, and placed on a magnetic stirring heater for stirring (at a temperature of 37° C., in dark). After stirring for 24 h, a sample was taken. The taken sample was quickly centrifuged, and the residual solid was detected by XRPD. The supernatant was detected for its pH value and diluted with a diluent into appropriate multiple, then measured with HPLC for its concentration.
FaSSIF: 1. 0.042 g sodium hydroxide, 0.3438 g sodium dihydrogen phosphate and 0.6186 g sodium chloride were weighed, added into 90 mL purified water, and homogeneously mixed, then, the mixture was adjusted with 1 N hydrochloric acid or 1 N sodium hydroxide to pH=6.5, and diluted into a constant volume of 100 mL with purified water; 2. 50 mL of the buffer described above was taken, and 0.224 g commercially available powder (Biorelevant.com) of FaSSIF/FeSSIF/FaSSGF was added thereto, the mixture was stirred to dissolve, and diluted with purified water to a constant volume of 100 mL.
FeSSIF: 1. 0.404 g sodium hydroxide, 0.865 g glacial acetic acid, and 1.1874 g sodium chloride were weighed, added into 90 mL purified water, and homogeneously mixed, then, the mixture was adjusted with 1 N hydrochloric acid or 1 N sodium hydroxide to pH=5.0, and diluted with purified water to a constant volume of 100 mL, 2. 50 mL of the buffer described above was taken, and 1.12 g commercially available powder (Biorelevant.com) of FaSSIF/FeSSIF/FaSSGF was added thereto, the mixture was stirred to dissolve, and diluted with purified water to a constant volume of 100 mL.
FaSSGF (SGF): 1. 0.2 g sodium chloride was weighed, added into 90 mL purified water, and mixed homogeneously, the mixture was adjusted with 1 N hydrochloric acid to pH=1.8, and diluted with purified water to a constant volume of 100 mL, and stood at room temperature.

[4] = Acceleration test (40° C./relative humidity of 75%, open), 10 days
[5] = High humidity (room temperature/relative humidity of 92.5%, open), 10 days
[6] = High temperature (60° C., open), 10 days
[7] = Light radiation (total illumination: 1.2 × 10^6 Lux·hr), 10 days
[8] = conclusion of influence factors and acceleration tests

**Q.** Which results are given for `C=CC(=O)N[C@H]1COC[C@H]1Nc1ncc(/C=C(\F)c2c(Cl)c(OC)cc(OC)c2Cl)cn1` [Crystal Form A]?
**A.** Appearance ([1]; 0 day (initial)): Off-white; Content (%) ([1]; 0 day (initial)): 99.11%; Total Impurities (%) ([1]; 0 day (initial)): 1.12%; Appearance ([1]; Acceleration test (40° C./relative humidity of 75%, open), 5 days): Off-white; Appearance [1, 4]: Off-white; Content (%) [1, 4]: 98.98%; Total Impurities (%) [1, 4]: 1.18%; Appearance ([1]; High humidity (room temperature/relative humidity of 92.5%, open), 5 days): Off-white; Appearance [1, 5]: Off-white; Content (%) [1, 5]: 98.85%; Total Impurities (%) [1, 5]: 1.22%; Appearance ([1]; High temperature (60° C., open), 5 days): Off-white; Appearance [1, 6]: Off-white; Content (%) [1, 6]: 99.06%; Total Impurities (%) [1, 6]: 1.18%; Appearance ([1]; Light radiation (total illumination: 1.2 × 10^6 Lux·hr), 5 days): Off-white; Appearance [1, 7]: Off-white; Content (%) [1, 7]: 99.13%; Total Impurities (%) [1, 7]: 1.10%; photostability (stability under light radiation), conclusion in words [1, 8]: relatively good; stability under acceleration conditions, conclusion in words [1, 8]: relatively good; stability under high humidity conditions, conclusion in words [1, 8]: slightly less stability; thermal stability (high temperature), conclusion in words [1, 8]: relatively good; stability in the acetonitrile-water solution ([2]; stirring in acetonitrile-water (1:1) at 40° C. for 2 days): substantially high stability; stability in the ethyl acetate solution ([2]; stirring in ethyl acetate at 40° C. for 2 days): substantially high stability

**Q.** For `C=CC(=O)N[C@H]1COC[C@H]1Nc1ncc(/C=C(\F)c2c(Cl)c(OC)cc(OC)c2Cl)cn1.CS(=O)(=O)O` [compound represented by formula (II)], which “solubility in simulated gastric fluid (SGF) and simulated intestinal fluid (FaSSIF), in words” value [3] is on record?
**A.** relatively good solubility

**Q.** With `C=CC(=O)N[C@H]1COC[C@H]1Nc1ncc(/C=C(\F)c2c(Cl)c(OC)cc(OC)c2Cl)cn1.O=S(=O)(O)O` [compound represented by formula (III)] as the compound, how does the “solubility in simulated gastric fluid (SGF) and simulated intestinal fluid (FaSSIF), in words” value [3] read?
**A.** relatively good solubility
